Test results published in patent publication US20100291236A1, “OSMIUM COMPOUNDS” (THE UNIVERSITY OF WARWICK, priority 2006, published 2010).
Entries after “also recorded” stand apart in the source; their conditions may differ. Where two headings read alike, the source gives them in different places.

Columns and labels:
9-ethyl guanine (9EtG) = test: Reaction with nucleobase model 9-ethyl guanine, 1H NMR; type: binding; conditions: pH* close to 7.4, 298 K
Experimental: (§1) Since DNA is believed to be the main target for metal anticancer drugs, nucleobase binding reactions of compounds 3-6, with nucleobase models, 9-ethyl guanine (9EtG) and 9-ethyl adenine (9EtA), were investigated.
(§2) Solutions of 3-6 (1 mM) (present as an equilibrium between 3-6 and their respective aqua adducts as the major species) with 1 mol equivalent of 9EtG (Table 14) or 9EtA (Table 15) in D2O were prepared and ^1H NMR spectra were taken at different time intervals.
(§3) Interactions with Nucleobases. The reaction of compounds 8-12 with nucleobases typically involved addition of a solution containing 1 mol equiv of nucleobase in D2O, to an equilibrium solution of compounds 8-12 in D2O (>90% aqua). The pH* value of the sample was adjusted if necessary so as to remain close to 7.4 (physiological). ^1H NMR spectra of these solutions were recorded at 298 K after various time intervals.

9-ethyl adenine (9EtA) = test: Reaction with nucleobase model 9-ethyl adenine, 1H NMR; type: binding; conditions: pH* close to 7.4, 298 K
Experimental: as §1, §2, §3

[1] = Hydrolysis (aquation) kinetics followed by 1H NMR; type: physicochemical; conditions: Table 18; 288 K; 0.8 mM
Experimental: Hydrolysis. […] The rate of hydrolysis was determined by fitting plots of concentrations (determined by ^1H NMR peak integrals) versus time to a pseudo first-order equation using ORIGIN version 5.0 (Microcal Software Ltd.).

[2] = test system: human ovarian A2780 cancer cells; test: Cytotoxicity towards A2780 cells, sulforhodamine B (SRB) assay; type: cell-based
Experimental: (§4) Experimental: Cytotoxicity Towards A2780 and A549 Human Cancer Cells. After plating, human ovarian A2780 cancer cells were treated with Os^II complexes on day 3, and human lung A549 cancer cells on day 2, at concentrations ranging from 2 μM to 50 μM. Solutions of the Os^II complexes were made up in 0.125% DMSO to assist dissolution. Cells were exposed to the complexes for 24 h, washed, supplied with fresh medium, allowed to grow for three doubling times (72 h), and then the protein content measured (proportional to cell survival) using the sulforhodamine B (SRB) assay.
(§5) Cancer Cell Cytotoxicity. After plating, human ovarian A2780 cancer cells were treated with OsII complexes on day 3, and human lung A549 cancer cells on day 2, at concentrations ranging from 0.1 μM to 100 μM. Solutions of the OsII complexes were made up in 0.125% DMSO to assist dissolution. Cells were exposed to the complexes for 24 h, washed, supplied with fresh medium, allowed to grow for three doubling times (72 h), and then the protein content measured (proportional to cell survival) using the sulforhodamine B (SRB) assay.10

[3] = test system: human lung A549 cancer cells; test: Cytotoxicity towards A549 cells, sulforhodamine B (SRB) assay; type: cell-based
Experimental: as §4, §5

[4] = Acidity (pKa / pKa*) of coordinated water, 1H NMR pH* titration; conditions: aqua adduct
Source text: pKa* calculations. […] The chemical shifts of the arene ring protons were plotted against pH*. The pH* titration curves were fitted to the Henderson-Hasselbalch equation, with the assumption that the observed chemical shifts are weighted averages according to the populations of the protonated and deprotonated species.

[5] = Table 7, 24 h exposure, 72 h growth, 2-50 μM, read-out: IC50/μM A2780
[6] = Table 7, 24 h exposure, 72 h growth, 2-50 μM, read-out: IC50/μM A549

Molecule	+1 eq. 9-EtG (% adduct formation) (9-ethyl guanine (9EtG); t = 0.17 h)	+1 eq. 9-EtG (% adduct formation) (9-ethyl guanine (9EtG); t = 24 h)	+1 eq. 9-EtA (% adduct formation) (9-ethyl adenine (9EtA); t = 0.17 h)	+1 eq. 9-EtA (% adduct formation) (9-ethyl adenine (9EtA); t = 24 h)	Hydrolysis k/h^−1 [1]	IC50 [2, 5]	IC50 [3, 6]	pKa of water coordinated on hydrolysis (aqua adduct of complex) [4]	other results
O=C(c1ccccn1)[N]([Os][Cl])c1ccccc1.c1ccc(-c2ccccc2)cc1 [Compound 10, [(η^6-bip)Os(N-Ph-picolinamide)Cl]PF6]	73%	73%	0%	0%	≧5.9 h^−1	–	–	–	–
Cc1ccc(C(C)C)cc1.O=C1c2cccc[n+]2[Os-]([Cl])[N]1c1ccccc1[N+](=O)[O-] [Compound 11]	69%	69%	0%	0%	≧5.9 h^−1	–	–	–	–
C1=CCC2=C(C1)Cc1ccccc1C2.F[P-](F)(F)(F)(F)F.NCCN.[Cl][Ru+] [HC11, reference compound]	–	–	–	–	–	0.5 µM	0.5 µM	8.01	–
CC(=O)C=C(C)[O][Ru][Cl].Cc1ccc(C(C)C)cc1 [MMS6, reference compound]	–	–	–	–	–	19 µM	> 100 µM	9.4	–
Cc1ccc(C(C)C)cc1.NCC(=O)[O][Ru][Cl] [RF01, reference compound]	–	–	–	–	–	> 100 µM	–	8.65	–
CC(N)C(=O)[O][Ru][Cl].Cc1ccc(C(C)C)cc1 [RF02(a), reference compound]	–	–	–	–	–	> 100 µM	–	–	–
Cc1ccc(C(C)C)cc1.NCCC(=O)[O][Ru][Cl] [RF11, reference compound]	–	–	–	–	–	> 100 µM	–	–	–
O=C([O][Ru][Cl])C1CCCCN1.c1ccc(-c2ccccc2)cc1 [RF16, reference compound]	–	–	–	–	–	> 100 µM	–	–	–
[(η^6-p-cym)Os(N-2,4-difluoride-Ph-picolinamide)Cl]PF6 [Compound 8]	56%	56%	0%	0%	≧5.9 h^−1	–	–	–	Activity in A2780 cancer cell line [2]: cytotoxic; also recorded: active; IC50 ([2]; Table 19, read-out: IC50 (μM) in A2780): 8.2 µM; Activity in A549 cancer cell line [3]: moderately cytotoxic; IC50 ([3]; Example 6, read-out: IC50 in human lung A549 cancer cell line): 10 to 50 µM
[(η^6-p-cym)Os(O2C6H3CH3NCH3)Cl] [AFAP57]	–	–	–	–	–	40 µM	> 100 µM	8.31	–
